Experiments:
[1] = Liquid
[2] = excess molar enthalpy (molar enthalpy of mixing); xn = mol fraction of the nth substance listed; conditions: Liquid

CCCO [propan-1-ol]
molar volume [m3/mol], [1]
Conditions	298.15 K	313.15 K	328.15 K
100 kPa	7.514e-05	7.632e-05	7.759e-05
10000 kPa	7.452e-05	7.569e-05	7.694e-05

CCO [ethanol]
molar volume [m3/mol], [1]
Conditions	298.15 K	313.15 K	328.15 K
100 kPa	5.867e-05	5.964e-05	6.067e-05
10000 kPa	5.803e-05	5.899e-05	6.001e-05

CC(C)O [propan-2-ol]
molar volume [m3/mol], [1]
Conditions	298.15 K	313.15 K	328.15 K
100 kPa	7.694e-05	7.822e-05	7.962e-05
10000 kPa	7.594e-05	7.72e-05	7.857e-05

CO [methanol]
molar volume [m3/mol], [1]
Conditions	298.15 K	313.15 K	328.15 K
100 kPa	4.073e-05	4.146e-05	4.221e-05
10000 kPa	4.024e-05	4.096e-05	4.17e-05

CN(C)CCO [2-(N,N-dimethylamino)ethanol] + CCCO
excess molar enthalpy [kcal/mol], [2], Flow calorimetry
Conditions	298.2 K	313.2 K	328.2 K
100 kPa, x1 = 0.2007	-0.0457	–	-0.0632
100 kPa, x1 = 0.2509	-0.0511	–	-0.0696
100 kPa, x1 = 0.2984	–	-0.06	–
100 kPa, x1 = 0.3008	-0.0552	–	-0.0748
100 kPa, x1 = 0.3505	-0.0583	-0.0638	-0.0781
100 kPa, x1 = 0.3999	-0.0599	–	-0.0796
100 kPa, x1 = 0.4012	–	-0.066	–
100 kPa, x1 = 0.4501	–	-0.0668	–
100 kPa, x1 = 0.4507	-0.0602	–	-0.0797
100 kPa, x1 = 0.499	-0.0606	–	-0.0781
100 kPa, x1 = 0.5004	–	-0.0662	–
100 kPa, x1 = 0.5488	–	-0.0642	–
100 kPa, x1 = 0.5509	-0.0586	–	-0.0749
100 kPa, x1 = 0.5985	–	-0.0613	–
100 kPa, x1 = 0.6	-0.056	–	-0.0707
100 kPa, x1 = 0.6497	–	-0.0571	–
100 kPa, x1 = 0.6505	-0.0524	–	-0.065
100 kPa, x1 = 0.6986	–	-0.0518	–
100 kPa, x1 = 0.7001	–	–	-0.0585
100 kPa, x1 = 0.7488	–	-0.0455	–
100 kPa, x1 = 0.8005	–	-0.0377	–
100 kPa, x1 = 0.8495	–	-0.0297	–
10000 kPa, x1 = 0.2001	-0.0457	–	-0.063
10000 kPa, x1 = 0.2492	–	-0.0553	–
10000 kPa, x1 = 0.2503	-0.0511	–	-0.0701
10000 kPa, x1 = 0.2998	–	-0.0611	–
10000 kPa, x1 = 0.3004	-0.0553	–	-0.0757
10000 kPa, x1 = 0.3489	–	-0.0646	–
10000 kPa, x1 = 0.3502	-0.0582	–	-0.079
10000 kPa, x1 = 0.3995	-0.0602	-0.0667	-0.0808
10000 kPa, x1 = 0.4484	–	-0.0674	–
10000 kPa, x1 = 0.4504	-0.0609	–	-0.0811
10000 kPa, x1 = 0.4986	–	-0.067	–
10000 kPa, x1 = 0.5007	-0.0605	–	-0.0793
10000 kPa, x1 = 0.5504	-0.0587	-0.065	-0.0764
10000 kPa, x1 = 0.5994	-0.056	–	-0.0722
10000 kPa, x1 = 0.6001	–	-0.0618	–
10000 kPa, x1 = 0.6497	-0.0527	–	-0.0667
10000 kPa, x1 = 0.6512	–	-0.0573	–
10000 kPa, x1 = 0.7	–	-0.0518	–
10000 kPa, x1 = 0.7501	–	-0.0453	–
10000 kPa, x1 = 0.8015	–	-0.0375	–
10000 kPa, x1 = 0.8503	–	-0.0293	–

CN(C)CCO [2-(N,N-dimethylamino)ethanol] + CC(C)O
excess molar enthalpy [kcal/mol], [2]
Conditions	298.2 K	313.2 K	328.2 K
100 kPa, x1 = 0.0496	–	-0.00404	–
100 kPa, x1 = 0.0499	–	–	-0.00858
100 kPa, x1 = 0.1008	0.00387	-0.00413	–
100 kPa, x1 = 0.1014	–	–	-0.0122
100 kPa, x1 = 0.1502	0.00667	-0.00304	–
100 kPa, x1 = 0.1511	–	–	-0.0135
100 kPa, x1 = 0.1994	0.00889	-0.00167	–
100 kPa, x1 = 0.2005	–	–	-0.0137
100 kPa, x1 = 0.2501	0.0103	-0.000645	–
100 kPa, x1 = 0.2513	–	–	-0.0135
100 kPa, x1 = 0.3005	0.0112	0.000215	–
100 kPa, x1 = 0.3018	–	–	-0.0132
100 kPa, x1 = 0.3504	0.0115	0.000693	–
100 kPa, x1 = 0.3519	–	–	-0.013
100 kPa, x1 = 0.3999	0.0114	0.000813	–
100 kPa, x1 = 0.4015	–	–	-0.0127
100 kPa, x1 = 0.4507	0.0109	0.000717	–
100 kPa, x1 = 0.4524	–	–	-0.0124
100 kPa, x1 = 0.501	0.01	0.000478	–
100 kPa, x1 = 0.5026	–	–	-0.012
100 kPa, x1 = 0.5505	0.00891	-0.00012	–
100 kPa, x1 = 0.5522	–	–	-0.0115
100 kPa, x1 = 0.5993	0.00784	-0.000287	–
100 kPa, x1 = 0.6009	–	–	-0.0109
100 kPa, x1 = 0.6508	–	–	-0.0103
10000 kPa, x1 = 0.0499	–	-0.0044	-0.00937
10000 kPa, x1 = 0.0998	0.00325	-0.00464	-0.0129
10000 kPa, x1 = 0.1494	–	-0.00457	–
10000 kPa, x1 = 0.2005	0.00825	-0.00237	-0.0145
10000 kPa, x1 = 0.2496	0.00958	-0.00134	-0.0143
10000 kPa, x1 = 0.3	0.0103	-0.000598	-0.0139
10000 kPa, x1 = 0.35	0.0107	-0.000167	-0.0135
10000 kPa, x1 = 0.3995	0.0107	-2.39e-05	-0.0131
10000 kPa, x1 = 0.4504	0.0103	-9.56e-05	-0.0127
10000 kPa, x1 = 0.5006	0.0097	-0.000311	-0.0123
10000 kPa, x1 = 0.5501	0.00889	-0.000621	-0.0118
10000 kPa, x1 = 0.6009	0.00789	–	-0.0111
10000 kPa, x1 = 0.6508	–	–	-0.0109

CN(C)CCO [2-(N,N-dimethylamino)ethanol]
molar volume [m3/mol], [1]
Conditions	298.15 K	313.15 K	328.15 K
100 kPa	0.0001009	0.0001024	0.0001039
10000 kPa	0.0001009	0.0001024	0.0001039

— the NIST ThermoML archive (doi:10.1021/je800334m)
